Laboratory results from patent US20240287138A1, “CYCLIC PEPTIDES FOR INHIBITING TNF RECEPTOR 1 ACTIVITY” (Merck Sharp & Dohme LLC, priority 2023, published 2024).
Numbered stars: 1 amine (or outer) side, 2 acyl side, 3 side chain; on linkers, the order of the positions; unused ones are H or OH. Bridge positions count the residues as written; N and C are the ends. Square brackets hold non-standard residues; d marks the D form. Peptide text beside a SMILES is read from it. * marks the point of attachment. Trp(βS-Me,7-OMe) = COc1cccc2c([C@H](C)[C@H](N)C(=O)O)c[nH]c12; Trp(7-Cl) = N[C@@H](Cc1c[nH]c2c(Cl)cccc12)C(=O)O; Phe(4-CONH2) = NC(=O)c1ccc(C[C@H](N)C(=O)O)cc1; Phe(4-COOH) = N[C@@H](Cc1ccc(C(=O)O)cc1)C(=O)O; Trp(7-aza) = N[C@@H](Cc1c[nH]c2ncccc12)C(=O)O; X58 = O=C([C@H](CCCCC(F)(F)F)N[*:1])[*:2]; Pip(5R-OH) = O=C(O)[C@@H]1CC[C@@H](O)CN1; X1 = O=C([C@@H]1CC[C@H](N[*:1])C1)[*:2]; X35 = CC(C)(N)[C@H](N[*:1])C(=O)[*:2]; Lys(Me2) = CN(C)CCCC[C@H](N)C(=O)O; Val(3-OH) = CC(C)(O)[C@H](N)C(=O)O; Pip(4-aza) = O=C(O)[C@@H]1CNCCN1; 4Pal = N[C@@H](Cc1ccncc1)C(=O)O; NMeE = CN[C@@H](CCC(=O)O)C(=O)O; X36 = C[C@@H](C(=O)[*:1])[*:2]; αMeS = C[C@](N)(CO)C(=O)O; Carboxymethyl = O=C(O)C*; Nle = CCCC[C@H](N)C(=O)O; Sar = CNCC(=O)O

Assays:
[1] = target: T1, human soluble TNFR1 (sTNFR1) (Homo sapiens, UniProt P19438); experiment: Human sTNFR1-peptide displacement assay (LanthaScreen Eu TR-FRET binding assay)
T1 construct: made in house; host or cells: Sf21 (baculovirus)
T1 sequence (P19438 with tags, fused parts or gaps): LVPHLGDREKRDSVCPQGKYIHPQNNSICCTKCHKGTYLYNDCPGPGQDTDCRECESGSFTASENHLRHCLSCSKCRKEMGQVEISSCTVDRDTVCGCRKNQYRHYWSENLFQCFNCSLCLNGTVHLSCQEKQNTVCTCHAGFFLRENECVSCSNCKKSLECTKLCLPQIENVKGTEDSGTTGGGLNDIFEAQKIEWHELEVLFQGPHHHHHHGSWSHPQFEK
Procedure, shortened: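 Readout is the 665/615 nm TR-FRET ratio (Eu anti-His donor, streptavidin-Alexa647 acceptor), normalized to DMSO and saturating displacer, fit by Morrison-based five-parameter logistic for Kd^app. His-tagged sTNFR1 (1-211) prebound to 100 nM biotinylated peptide SEQ ID NO.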

[2] = target: T2, TNFα-induced NF-κB signal transduction pathway (TNFR1 signaling) in THP-1 cells (Homo sapiens, UniProt P19438); experiment: THP-1 Lucia NF-κB reporter cell assay, inhibition of TNFα-induced NF-κB signaling; type: cell-based; conditions: THP-1 NF-κB Lucia reporter cells, 10 ng/mL TNFα, 16-18 h, secreted luciferase; read-out: THP-1 IC50
T2 sequence (P19438 30-455): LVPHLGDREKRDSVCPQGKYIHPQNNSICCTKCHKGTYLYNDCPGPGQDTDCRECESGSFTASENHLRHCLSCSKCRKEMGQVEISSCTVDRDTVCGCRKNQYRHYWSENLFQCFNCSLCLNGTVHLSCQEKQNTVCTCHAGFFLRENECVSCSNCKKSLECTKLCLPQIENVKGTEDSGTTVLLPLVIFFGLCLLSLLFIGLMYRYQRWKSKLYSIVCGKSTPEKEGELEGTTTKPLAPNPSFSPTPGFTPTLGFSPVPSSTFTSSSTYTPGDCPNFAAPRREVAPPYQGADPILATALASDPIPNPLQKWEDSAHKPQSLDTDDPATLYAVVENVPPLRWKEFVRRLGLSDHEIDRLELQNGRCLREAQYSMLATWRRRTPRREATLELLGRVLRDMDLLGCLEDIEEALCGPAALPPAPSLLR
Procedure, shortened: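 Inhibition of TNFR1-driven NF-κB activation was measured as luminescence of secreted reporter luciferase following overnight (16-18 h) stimulation with 10 ng/mL TNFα.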

CCCC[C@@H]1NC(=O)[C@@H]2CC[C@@H](C2)NC(=O)[C@H]([C@@H](C)c2c[nH]c3c(OC)cccc23)NC(=O)CN(C)C(=O)[C@H](Cc2ccc(OCC(=O)O)cc2)NC(=O)[C@H](Cc2ccc(C(N)=O)cc2)NC(=O)[C@](C)(CO)NC(=O)[C@H](Cc2c[nH]c3c(Cl)cccc23)NC(=O)[C@H](Cc2ccncc2)NC(=O)[C@H](CC(N)=O)NC(=O)[C@H](CCC(=O)O)N(C)C(=O)[C@H](Cc2c[nH]c3ccccc23)NC(=O)[C@@H]2CC[C@@H](O)CN2C(=O)[C@H](Cc2ccncc2)NC1=O [SEQ ID NO. 126] (cyclo([4Pal][Trp(7-Cl)][αMeS][Phe(4-CONH2)]Y(Carboxymethyl)[Sar][Trp(βS-Me,7-OMe)][X1][Nle][4Pal][Pip(5R-OH)]W[NMeE]N))
Kd [1]: 0.08 nM | IC50 [2]: 0.8 nM

COc1cccc2c([C@H](C)[C@@H]3NC(=O)CN(C)C(=O)[C@H](Cc4ccc(O)cc4)NC(=O)[C@H](Cc4ccc(C(=O)O)cc4)NC(=O)[C@](C)(CO)NC(=O)[C@H](Cc4c[nH]c5c(Cl)cccc45)NC(=O)[C@H](Cc4ccncc4)NC(=O)[C@H](CC(N)=O)NC(=O)[C@H](CCC(=O)O)N(C)C(=O)[C@H](Cc4c[nH]c5ccccc45)NC(=O)[C@@H]4CNCCN4C(=O)[C@H](Cc4ccncc4)NC(=O)[C@H](CCCCC(F)(F)F)NC(=O)[C@@H]4CC[C@@H](C4)NC3=O)c[nH]c12 [SEQ ID NO. 213] (cyclo([4Pal][Trp(7-Cl)][αMeS][Phe(4-COOH)]Y[Sar][Trp(βS-Me,7-OMe)][X1][X58][4Pal][Pip(4-aza)]W[NMeE]N))
Kd [1]: 0.31 nM | IC50 [2]: 1 nM

CCCC[C@@H]1NC(=O)CSC[C@@H](C(N)=O)NC(=O)[C@H]([C@@H](C)c2c[nH]c3c(OC)cccc23)NC(=O)CN(C)C(=O)[C@H](Cc2ccc(O)cc2)NC(=O)[C@H](Cc2ccc(C(=O)O)cc2)NC(=O)[C@](C)(CO)NC(=O)[C@H](Cc2c[nH]c3c(Cl)cccc23)NC(=O)[C@H](Cc2ccncc2)NC(=O)[C@H](CC(N)=O)NC(=O)[C@H](CCC(=O)O)N(C)C(=O)[C@H](Cc2c[nH]c3ncccc23)NC(=O)[C@H](C(C)(C)O)NC(=O)[C@H](Cc2c[nH]cn2)NC1=O [SEQ ID NO. 217] ({CH2CO}-[Nle]H[Val(3-OH)][Trp(7-aza)][NMeE]N[4Pal][Trp(7-Cl)][αMeS][Phe(4-COOH)]Y[Sar][Trp(βS-Me,7-OMe)]C-NH2; thioether N-14)
IC50 [1]: 1 nM | Kd [1]: 0.73 nM | IC50 [2]: 4.4 nM

COc1cccc2c([C@H](C)[C@@H]3NC(=O)CN(C)C(=O)[C@H](Cc4ccc(O)cc4)NC(=O)[C@H](Cc4ccc(C(N)=O)cc4)NC(=O)[C@](C)(CO)NC(=O)[C@H](Cc4c[nH]c5c(Cl)cccc45)NC(=O)[C@H](Cc4ccncc4)NC(=O)[C@H](CC(N)=O)NC(=O)[C@H](CCC(=O)O)N(C)C(=O)[C@H](Cc4c[nH]c5ccccc45)NC(=O)[C@@H]4CC[C@@H](O)CN4C(=O)[C@H](Cc4ccncc4)NC(=O)[C@H](CCCCN(C)C)NC(=O)[C@@H]4CC[C@@H](C4)NC3=O)c[nH]c12 [SEQ ID NO. 238] (cyclo([4Pal][Trp(7-Cl)][αMeS][Phe(4-CONH2)]Y[Sar][Trp(βS-Me,7-OMe)][X1][Lys(Me2)][4Pal][Pip(5R-OH)]W[NMeE]N))
Kd [1]: 0.12 nM | IC50 [2]: 0.7 nM

CCCC[C@@H]1NC(=O)[C@H](C)SC[C@@H](C(N)=O)NC(=O)[C@H]([C@@H](C)c2c[nH]c3c(OC)cccc23)NC(=O)CN(C)C(=O)[C@H](Cc2ccc(O)cc2)NC(=O)[C@H](Cc2ccc(C(N)=O)cc2)NC(=O)[C@](C)(CO)NC(=O)[C@H](Cc2c[nH]c3c(Cl)cccc23)NC(=O)[C@H](Cc2ccncc2)NC(=O)[C@H](CC(N)=O)NC(=O)[C@H](CCC(=O)O)N(C)C(=O)[C@H](Cc2c[nH]c3ncccc23)NC(=O)[C@H](C(C)(C)N)NC(=O)[C@H](Cc2ccncc2)NC1=O [SEQ ID NO. 273] ([Nle][4Pal][X35][Trp(7-aza)][NMeE]N[4Pal][Trp(7-Cl)][αMeS][Phe(4-CONH2)]Y[Sar][Trp(βS-Me,7-OMe)]C-NH2; linker N-14 via X36)
IC50 [1]: 0.6 nM | Kd [1]: 0.33 nM | IC50 [2]: 4.1 nM
